“And” between values parts separate entries of the source, which are not always exact repeats. Equal values may be shown once.
Assays:
[1] = system: EPO (erythropoietin); experiment: Pharmacological evaluation: influence of continuous administration on EPO level; format: in vivo, SD rats
Protocol: This experiment was intended to evaluate an influence of continuous administration of the compounds prepared in Embodiments 12, 13 and 14 on EPO (erythropoietin) in SD rats.
• Line: SD (Sprague Dawley) • Weeks of age and weight: 8 weeks, weight 200 g to 220 g • Sex: male • Animal source: Beijing Vital River Laboratory Animal Technology Co., Ltd.
• Positive drug: Enarodustat • Description: commercialized drugs approved for marketing in Japan • Specification and content: 2 mg JTZ-951(Enarodustat), 140 capsules/box
After a week of adaptive feeding, SD rats were randomly divided into 3 groups, 6 rats in each group, which were namely a blank group, a positive drug group (Enarodustat) and a group of compound in Embodiment 12. An Enarodustat tablet was crushed by a mortar, then quantitatively added with 0.5% methyl cellulose, and magnetically stirred and mixed evenly; and the compound prepared in Embodiment 12 was weighed, then quantitatively added with 0.5% methyl cellulose, and magnetically stirred and mixed evenly. […] The drug was given once a day for 14 consecutive days, and blood was taken to measure an EPO level 4 hours after the drug was given on the 14th day.

[2] = Pharmacokinetic evaluation after intravenous injection or intragastric administration, plasma LC-MS/MS; format: in vivo, SD rats
Text: After the compounds were given to SD rats by intravenous injection or intragastric administration, concentrations of related compounds in plasma were detected by an LC-MS/MS method, and pharmacokinetics and absolute bioavailability of the compounds prepared in Embodiments 13 and 14 in the rats were preliminarily evaluated.
2. Line: Sprague Dawley rats, sex: male, weight: 200 g to 250 g
Pharmacokinetic characteristics of rodents after intravenous injection and oral administration of the compounds were tested by a standard scheme. In the experiment, a candidate compound was prepared into a clear solution, and given to the rats by single intravenous injection and intragastric administration. A solvent for intravenous injection was a certain proportion of N,N-dimethylacetamide (DMA) and 10% Solutol HS15 solution, and a solvent for oral administration was a certain proportion of sodium carboxymethyl cellulose (CMC) suspension. 5 minutes, 15 minutes, 30 minutes, 1 hour, 2 hours, 4 hours, 6 hours, 8 hours, 10 hours and 24 hours after drug administration, blood samples of the animals were respectively collected into K2EDTA anticoagulation tubes, which were temporarily stored on ice until centrifugation.

[3] = system: human hepatocarcinoma cell line Hep3B; experiment: In-vitro erythropoietin (EPO)-inducing activity experiment (EPO ELISA, OD450); format: cell-based; details: Homo sapiens, Hep3B, 24 h, Hep3B cells, incubated 24 hours at 37°C
Protocol: In-vitro erythropoietin (EPO)-inducing activities of the compounds in Embodiments 10 to 12 were evaluated by using a human hepatocarcinoma cell line Hep3B (ATCC). Hep3B cells were cultured in an EMEM medium (Eagle's Minimum Essential Medium) at 37°C in the presence of 10% fetal bovine serum (FBS). Experimental steps were as follows: • (1) Cell preparation: the cells were inoculated in a 96-well plate, and cell plating was carried out according to an amount of 100 µL per well based on 2*10~4 per well. • (2) Preparation of compound concentration gradient: 100 µM, 20 µM, 2-parallel well detection. A solution with 200 times final concentration was prepared in a 96-well plate, the compound was diluted 200/3 times by using a cell culture medium, and then 50 µL of the compound was sucked for drug administration to the cells. 50 µL of DMSO-containing culture solution was added into a negative control well to make a final concentration contain 5 ‰ DMSO, and 50 µL of positive compound with the highest concentration was added into a positive control well to incubate the cells at 37°C for 24 hours. • (3) The reaction plate was washed twice with 1X Wash Buffer according to about 400 µL per well. • (4) 100 µL of diluted standard (comprising a standard blank control) was added into an appropriate well. • (5) 50 µL of sample and 50 µL of Sample Diluent were added into a sample well. • (6) 50 µL of 1X Biotin Conjugated Antibody were added into all wells to incubate the cells at room temperature for 1 hour. • (7) The reaction plate was washed with 1X Wash Buffer for 6 times according to about 400 µL per well. • (8) 100 µL of 1X Streptavidin-HRP was added in to each well to incubate the cells at room temperature for 15 minutes. • (9) The reaction plate was washed with 1X Wash Buffer for 6 times according to about 400 µL per well. • (10) 100 µL of TMB Substrate Solution was added into each well to incubate the cells at room temperature for 10 minutes. • (11) 100 µL of Stop Solution was added into each well. • (12) OD450 was read by EnSight.
The EPO-inducing activities of the compounds were expressed as the concentration for 50% of maximal effect (EC50).

[4] = SD rats, in words, compared with Enarodustat in the table

O=C(O)CNC(=O)c1c(O)cc(C2CCc3ccccc3C2)n2ncnc12 (single isomer, unassigned) [Compound in Embodiment 13, [(7-hydroxy-5-(1,2,3,4-tetrahydronaphthalene-2-yl)-[1,2,4]triazolo[1,5-a]pyridine-8-carbonyl)amino]acetic acid]
EPO levels in serum of the rats ([1]; after 14 days of administration, in words): increased significantly | EPO levels in plasma of the rats ([1]; after administration, compared with the group of positive drug Enarodustat, in words): significantly higher | EPO level after 14 days of administration ([1]; individual rats 1-6, 0.3 mg/mL, 10 mL/kg, once a day for 14 consecutive days, blood 4 hours after the drug on the 14th day, 2904.6 pg/mL was an upper limit of measurement): ≥ 2904.6 pg/mL (3×) and 2697.4 pg/mL and 2658.5 pg/mL and 2772.1 pg/mL | EPO level after 14 days of administration, Mean ([1]; mean of 6 rats, 0.3 mg/mL, 10 mL/kg, once a day for 14 consecutive days, blood 4 hours after the drug on the 14th day, 2904.6 pg/mL was an upper limit of measurement): 2807.0 pg/mL | half-lives [2, 4]: obviously longer | in-vivo exposure [2, 4]: higher | AUC ([2]; male, Sprague-Dawley, rat, plasma, male SD rats, route and dose not given, read-out: Concentration integral AUC): 19100 ng·h/mL | half-life ([2]; male, Sprague-Dawley, rat, plasma, male SD rats, route and dose not given, read-out: Half-life period T1/2 (converted)): 2.02 h | bioavailability ([2]; male, Sprague-Dawley, rat, plasma, oral, male SD rats, intragastric vs intravenous, read-out: Bioavailability F): 29.4% | EC50 [3]: 5.05 µM
